Assay results taken from ChEMBL document CHEMBL5247593, “Novel heterocyclic hydroxamates as inhibitors of the mycobacterial zinc metalloprotease Zmp1 to probe its mechanism of function” (Eur J Med Chem, 2022).
pIC50: −log10 of the molar value.

What was measured:
[1] = test system: Mycobacterium tuberculosis; assay: Antimycobacterial activity against Mycobacterium tuberculosis H37Ra ATCC 25177 assessed as inhibition of bacterial growth at 128 uM measured after 7 days by luminescence based analysis relative to control; format: functional; conditions: H37Ra ATCC 25177, 168 h, time 7 day
RAW264.7 = assay: Cytotoxicity against mouse RAW264.7 cells assessed as inhibition of cell growth measured after 72 hrs by resazurin staining based […] analysis; format: functional; conditions: RAW264.7, 72 h
MRC5 = assay: Cytotoxicity against human MRC5 cells assessed as inhibition of cell growth measured after 72 hrs by resazurin staining based […] analysis; format: functional; conditions: MRC5, 72 h
[2] = test system: Mycobacterium tuberculosis; assay: Antimycobacterial activity against Mycobacterium tuberculosis H37Ra infected in mouse RAW264.7 cells assessed as reduction in intracellular bacterial survival at 128 uM incubated for 3 days by luminescence based analysis relative to control; format: functional; conditions: time 3 day
[3] = test system: Mycobacterium tuberculosis; assay: Inhibition of Mycobacterium tuberculosis Zmp1 at 8 to 40 uM by MALDI-TOF-MS analysis; conditions: dose 8-40 µM

Row | Compound | inhibition at 128 µM [1] [%] | pIC50 (RAW264.7; read-out: IC50) | pIC50 (MRC5) | Activity [2] [%] | inhibition [3] [%] | pIC50 (RAW264.7)
1 | COC(=O)[C@@H](NC(=O)c1cccc(/C=C2\SC(=O)N(CC(=O)NOCc3ccccc3)C2=O)c1)C(C)C | 6.3 | < 3.89 | < 3.89 | 35.1 | – | –
2 | CC(C)C[C@H](NC(=O)[C@H](C)NC(=O)c1cn(CC(=O)NOCc2ccccc2)c2ccccc12)C(=O)O | 13.6 | < 3.89 | < 3.89 | – | 56 | –
3 | CO[C@H]1/C=C/O[C@@]2(C)Oc3c(C)c(O)c4c(O)c(c(/C=N/N5CCN(C)CC5)c(O)c4c3C2=O)NC(=O)/C(C)=C\C=C\[C@H](C)[C@H](O)[C@@H](C)[C@@H](O)[C@@H](C)[C@H](OC(C)=O)[C@@H]1C [RIFAMPIN] | 100 | – | – | – | – | –
4 | CC/C(=C(\c1ccccc1)c1ccc(OCCN(C)C)cc1)c1ccccc1 [TAMOXIFEN] | – | – | 4.76 | – | – | 4.73
5 | C=CCONC(=O)CN1C(=O)S/C(=C\c2ccc(C(=O)N[C@H](C(=O)OC)C(C)C)cc2)C1=O | 8.2 | < 3.89 | < 3.89 | 28.4 | 38 | –
6 | C=CCONC(=O)CN1C(=O)S/C(=C\c2cccc(C(=O)N[C@H](C(=O)OC)C(C)C)c2)C1=O | 3.4 | < 3.89 | < 3.89 | 14.1 | – | –
7 | C=CCONC(=O)Cn1ccc(C(=O)NCC(=O)N[C@H](C(=O)O)C(C)C)c1 | – | – | – | – | 14 | –
8 | CC(C)C[C@H](NC(=O)CNC(=O)c1ccn(CC(=O)NOCc2ccccc2)c1)C(=O)O | 9.2 | < 3.89 | < 3.89 | – | 26 | –
9 | C=CCONC(=O)Cn1cc(C(=O)N[C@@H](C)C(=O)N[C@@H](CC(C)C)C(=O)O)c2ccccc21 | 12.4 | < 3.89 | < 3.89 | – | 86 | –
10 | CC(C)[C@H](NC(=O)[C@H](C)NC(=O)c1cn(CC(=O)NOCc2ccccc2)c2ccccc12)C(=O)O | 23.6 | < 3.89 | < 3.89 | – | 59 | –
11 | C=CCONC(=O)Cn1ccc(C(=O)N[C@@H](C)C(=O)N[C@H](C(=O)O)C(C)C)c1 | 12.8 | < 3.89 | < 3.89 | – | 27 | –
12 | C=CCONC(=O)CN1C(=O)S/C(=C\c2cccc(C(=O)N[C@@H](CC(C)C)C(=O)OC)c2)C1=O | 3.2 | < 3.89 | < 3.89 | 46.3 | 47 | –
13 | COC(=O)[C@@H](NC(=O)c1ccc(/C=C2\SC(=O)N(CC(=O)NOCc3ccccc3)C2=O)cc1)C(C)C | 6.2 | < 3.89 | < 3.89 | 83.2 | 41 | –
14 | CC(C)[C@H](NC(=O)CNC(=O)c1ccn(CC(=O)NOCc2ccccc2)c1)C(=O)O | 5.9 | < 3.89 | < 3.89 | – | 70 | –
15 | C=CCONC(=O)CN1C(=O)S/C(=C\c2ccc(C(=O)N[C@@H](CC(C)C)C(=O)OC)cc2)C1=O | 4.4 | < 3.89 | < 3.89 | 67.3 | 6 | –
16 | CC(C)C[C@H](NC(=O)CNC(=O)c1cn(CC(=O)NOCc2ccccc2)c2ccccc12)C(=O)O | 11.1 | < 3.89 | < 3.89 | – | 57 | –
17 | C=CCONC(=O)Cn1cc(C(=O)NCC(=O)N[C@@H](CC(C)C)C(=O)O)c2ccccc21 | 14.6 | < 3.89 | < 3.89 | – | 47 | –
18 | COC(=O)[C@H](CC(C)C)NC(=O)c1ccc(/C=C2\SC(=O)N(CC(=O)NOCc3ccccc3)C2=O)cc1 | 2 | < 3.89 | < 3.89 | 80.3 | 5 | –
19 | CC(C)C[C@H](NC(=O)[C@H](C)NC(=O)c1ccn(CC(=O)NOCc2ccccc2)c1)C(=O)O | 3.2 | < 3.89 | < 3.89 | – | 62 | –
20 | CC(C)[C@H](NC(=O)CNC(=O)c1cn(CC(=O)NOCc2ccccc2)c2ccccc12)C(=O)O | 30.3 | < 3.89 | < 3.89 | 37.2 | 69 | –
21 | C=CCONC(=O)Cn1ccc(C(=O)NCC(=O)N[C@@H](CC(C)C)C(=O)O)c1 | 6.9 | < 3.89 | < 3.89 | – | 13 | –
22 | C=CCONC(=O)Cn1ccc(C(=O)N[C@@H](C)C(=O)N[C@@H](CC(C)C)C(=O)O)c1 | 13.8 | < 3.89 | < 3.89 | – | 88 | –
23 | COC(=O)[C@H](CC(C)C)NC(=O)c1cccc(/C=C2\SC(=O)N(CC(=O)NOCc3ccccc3)C2=O)c1 | 4.2 | < 3.89 | < 3.89 | 51.9 | 19 | –
24 | C=CCONC(=O)Cn1cc(C(=O)NCC(=O)N[C@H](C(=O)O)C(C)C)c2ccccc21 | 10.3 | < 3.89 | < 3.89 | – | 56 | –
25 | NNC(=O)c1ccncc1 [ISONIAZID] | 100 | – | – | – | – | –
26 | COc1nc2ccc(Br)cc2cc1[C@@H](c1ccccc1)[C@@](O)(CCN(C)C)c1cccc2ccccc12 [BEDAQUILINE] | 100 | – | – | – | – | –
27 | C=CCONC(=O)Cn1cc(C(=O)N[C@@H](C)C(=O)N[C@H](C(=O)O)C(C)C)c2ccccc21 | 13.6 | < 3.89 | < 3.89 | – | 50 | –
28 | CC(C)[C@H](NC(=O)[C@H](C)NC(=O)c1ccn(CC(=O)NOCc2ccccc2)c1)C(=O)O | 6.9 | < 3.89 | < 3.89 | – | 16 | –
